Like-named read-outs stand apart in the source and are kept apart here.

One may read the IC50 as the concentration that gives 50% inhibition. What is called Cmax is the peak of the concentration-time curve.

Data set [1] in a line: Hit scoring on safety in human subjects and pharmacokinetics. The note with it: for Score (PK): peak plasma concentration vs IC50. The text has this: Hits from the ReFrame library were further selected based on safety, preferably oral administration (high score if oral), and potential availability for widespread use.
For data set [2], the system named is mature stage V gametocytes (NF54 strain). Nature of the data set: High-throughput screening: killing effect by MitoTracker staining, primary screening at 1.11 µM and dose-response analysis. Format: cell-based, Plasmodium falciparum. The note with it: stage V gametocytes NF54, 24 h, dose-response analysis, N/A = not active in dose-response analysis, read-out: Killing IC50. Here is the method: (§1) Screening was conducted as previously described. Briefly, mature stage V gametocytes (NF54 strain) were cultured in vitro, then exposed to the explored compounds and filtered thereafter through layers of microspheres (microsphiltration)[25],[28]. Stiffening activity was determined by comparing gametocytemia up and downstream from the microsphere layers after filtration of drug-exposed gametocytes in 384-well plates using a vacuum manifold. Gametocytemia was assessed using DNA (Sybr Green) and erythrocyte membrane (CellMask) staining. Killing effect was assessed by MitoTracker staining. We screened two small libraries, specifically the Pathogen Box from the Medicine for Malaria Venture and the Kinase Inhibitors Box from GSK (400 and 350 compounds, respectively, Fig. 1A, B), and furthermore the larger ReFrame repurposing library (12,805 compounds, Fig. 1C).
(§2) The Pathogen Box library (400 compounds, provided by MMV-Medicine for Malaria Ventures, Geneva, Switzerland), the Kinase Inhibitors Box library (350 compounds, provided by GSK-Glaxo SmithKline DDW Unit, Tres Cantos, Spain), and the ReFrame library (12,805 compounds provided by the California Institute for Biomedical Research-Calibr, La Jolla, CA, USA) were used according to the providers’ instructions. DMSO-solubilized compounds (10 mM stock concentration) were loaded in 384-well plates (Seahorse, cat. no. 201035−100). Two columns were left empty for the controls. For each compound, 5 nL were pre-spotted in a single well to reach a final concentration of 1.11 μM. The final volume for each well was 45 μl. Controls were prepared as follows: 22.5 nL of DMSO were loaded in 16 wells as negative controls (0.05% final concentration); 22.5 nL of NITD609 (provided by MMV, Geneva, Switzerland) 1 mM were loaded in 8 wells (0.5 μM final concentration), 17 nL of Calyculin A (Sigma, cat. no. C5552) […] were loaded in 6 wells (75 nM final concentration) and 225 nL of Gentian Violet (MolPort, cat. no. 002-133-551) 10 mM were loaded in the remaining 2 wells (50 μM final concentration). Plates were prepared in triplicate for the Pathogen Box and sextuplicate for the Kinase Inhibitors Box.
(§3) Plasmodium falciparum NF54 strain parasites (used for screening campaign) were cultured at 4% hematocrit in RBCs from informed blood donors (blood group A) as previously described. Parasites were taken from the -80 °C freezer, then rapidly melt for 1 minute in a 37 °C water bath. A saline solution was gently added to avoid the lysis. Firstly, NaCl dissolved at 12% in distilled water (1/5 of the volume measured in the cryovial) and then NaCl dissolved at 1.6% (9 times the cryovial’s volume). After that, fresh RBCs were added to allow parasites re-growth. Infected RBCs were kept in RPMI medium (Sigma-Aldrich, cat. no. R4130), supplemented with 10% of decomplemented human serum, hypoxanthine 50 mg/l (Sigma-Aldrich, cat. no. H9636). Biobank of Castilla y Leon and Centro de Transfusiones de Madrid as providers of human red blood cell concentrates. The production of gametocytes was induced from a 0.5% ring-stage parasitemia (day 0). Medium was changed daily to induce gametocytes differentiation, as previously described. At day 17, gametocytes were concentrated using a density gradient medium (NycoPrep 1.077, Progen cat. no. 1114550)[27]. Parasitemia was adjusted by FACS (SYBR-Green and MitoTracker double staining, 3–5% targeted). Hematocrit was adjusted to 0.5% by adding fresh RBCs and controlled by manual counting in a Neubauer chamber (Celeromics, cat. no. 717810). Finally, the gametocyte suspension was poured (45 μL/well) into the compound-containing 384-well microplate, then incubated 24 hours both for the screening campaign and the dose-response analysis. Both asexual and sexual stages were cultivated in RPMI 1640 supplemented with 25 mM HEPES, 50 mg/L hypoxanthine, 50 μg/mL gentami-cin, 10% pooled heat-inactivated human serum (A^+).

For data set [3], the system named is HEK293T. The note with it: cited from earlier work.
Data set [4] deals with mature stage V gametocytes (NF54 strain). Briefly: microbe, parasite or virus in culture. In kind it is cell-based, Plasmodium falciparum. The conditions noted are these: read-out: Stiffening IC50 (retention). Here is the method:
as §1, §2, §3

In data set [5] the test system is HepG2. The conditions noted are these: cited from earlier work.
Data set [6] has as its system P.falciparum Dd2. Set-up: method as in previously published reports (Table S1 legend). The conditions noted are these: 72 h; results in previous assays; ref previously published reports (Table S1 legend); read-out: 72-h Dd2-SybrGreen PBFS assay IC50; cited from earlier work.
The conditions of data set [7]: human, in vivo, cited from earlier work.
The test system of data set [8] is human subjects. The conditions noted are these: cited from earlier work.
The mark [9] stands for this setting: stage V gametocytes NF54, 24 h, dose-response analysis, N/A = not active in dose-response analysis.
[10] abbreviates: Plasmodium falciparum, NF54, 24 h.
[11] abbreviates: read-out: Cellular cytotoxicity assay IC50, HEK293T, 72 h, first value of cell, ref previously published reports (Table S1 legend).
Where [12] appears, read: read-out: Cellular cytotoxicity assay IC50, HepG2, 72 h, second value of cell, ref previously published reports (Table S1 legend).

Regarding `CCCCCCCCN=c1ccn(CCCCCCCC)cc1` [Pirtenidine], the “Score (safety)” value in data set [1] is recorded as 0. Further, the “Score (PK)” value in data set [1] came out at 0. The half-maximal inhibitory concentration (IC50) was 2780 nM in data set [2]; 1480 nM in data set [3]; 3650 nM in data set [4] (setting [9]); 285 nM in data set [5]; 615 nM in data set [6].

With `COC(=O)N[C@H](C(=O)N1CCC[C@H]1c1nc(-c2ccc(-c3ccc(-c4c[nH]c([C@@H]5CCCN5C(=O)[C@@H](NC(=O)OC)C(C)C)n4)cc3)cc2)c[nH]1)C(C)C` [Daclatasvir], in data set [7] (30 mg), the maximum concentration (Cmax) was 945 nM and the t1/2 is 12.4 h.

For `CCN(CC)Cc1ccc2cc(COC(=O)Nc3ccc(C(=O)NO)cc3)ccc2c1.Cl.O` [Givinostat hydrochloride], the “Score (safety)” value in data set [1] was determined as 0. Further, the “Score (PK)” value in data set [1] is on record as 0. Besides, the IC50 in data set [2] was 2100 nM; in data set [4] (setting [9]), 1400 nM. Further, the “patients with significant adverse events” value in data set [8] (human, in vivo) was “more than 15%”.

Consider `COC(=O)N[C@H](C(=O)N1CCC[C@H]1C(=O)Nc1ccc([C@@H]2CC[C@@H](c3ccc(NC(=O)[C@@H]4CCCN4C(=O)[C@@H](NC(=O)OC)C(C)C)cc3)N2c2ccc(C(C)(C)C)cc2)cc1)C(C)C` [Ombitasvir], for which the t1/2 in data set [7] was 21 to 25 h.

On to `O=C(CC1NCCCC1O)Cn1cnc2cc(Br)c(Cl)cc2c1=O` (stereo not shown) [Halofuginone], for which the “Score (safety)” value in data set [1] (human) was 3. For the same compound, the IC50 in data set [2] (Plasmodium falciparum) was 240 nM; in data set [3], 89 nM; in data set [4] (setting [10]), 4300 nM; in data set [5] it was 36 nM; in data set [6], 1 nM.

`CO[C@H]1C[C@H](O[C@H]2CC[C@]3(C=O)[C@H]4CC[C@]5(C)[C@@H](C6=CC(=O)OC6)CC[C@]5(O)[C@@H]4CC[C@]3(O)C2)O[C@H](C)[C@H]1O` [Cymarine]: the “Score (safety)” value in data set [1] (human) was 0. For the same compound, in data set [1], the “Score (PK)” value is 0. In addition, the half-inhibitory concentration (IC50) in data set [3] (setting [11]) is 71 nM; in data set [4] (setting [10]), 330 nM; in data set [5] (setting [12]) it was 102 nM; in data set [6] it was 9950 nM.

Regarding `CC(C)[C@H](C(=O)Nc1ccc(C(=O)NO)cc1)c1ccccc1` [AR-42], the “Score (safety)” value in data set [1] is recorded as 0. Besides, the “Score (PK)” value in data set [1] was 0. The IC50 in data set [2] came out at 1500 nM; in data set [4] (setting [9]) it was 1900 nM. Moreover, the “rate of life-threatening adverse events” value in data set [8] (human, in vivo) was greater than 25%.

On to `COc1cccc2c1ccc1nc3cccc(C(=O)N[C@H](C)CN(C)C)c3nc12` [MLN 576], for which, in data set [1], the “Score (safety)” value was determined as 0. Besides, the “Score (PK)” value in data set [1] is on record as 0. The IC50 in data set [3] was 218 nM; in data set [4] (setting [9]), 5020 nM; in data set [5], 413 nM; in data set [6], 2040 nM.

As for `O=C(NO)c1cnc(N2C[C@@H]3[C@H](C2)[C@H]3NCc2ccc3cc(F)ccc3n2)nc1` [CHR-3996], in data set [1], the “Score (safety)” value was 0. Further, the “Score (PK)” value in data set [1] came to 0. In addition, the half-inhibitory concentration (IC50) in data set [2] (setting [10]) is 70 nM; in data set [3], 728 nM; in data set [4] (setting [10]), 7230 nM; in data set [5], 127 nM; in data set [6], 15 nM.

In the case of `CC1CCC(C(C)C)C(OC(=O)C[N+](C)(C)CCCCCCCCCC[N+](C)(C)CC(=O)OC2CC(C)CCC2C(C)C)C1` (stereo not shown) [Decamethoxine], the concentration for half-maximal inhibition (IC50) in data set [2] was 8100 nM; in data set [3], 3300 nM; in data set [4] (setting [9]), 1000 nM; in data set [5] it was 4300 nM; in data set [6] it was 61 nM.

For `N=C(N)c1ccc(C=C2c3ccccc3-c3ccccc32)cc1` [Paranyline], the “Score (safety)” value in data set [1] is 0. Besides, the “Score (PK)” value in data set [1] is on record as 0. Also, the 50% inhibitory concentration (IC50) in data set [2] (setting [10]) is 1900 nM; in data set [3] (setting [11]) it was 1420 nM; in data set [4] (setting [10]) it was 3200 nM; in data set [5] (setting [12]), 650 nM; in data set [6] it was 1870 nM.

As for `COc1ccc(-c2nc(N3CCOCC3)c3sc(CN(C)c4ncc(C(=O)NO)cn4)cc3n2)cn1` [CUDC-907], in data set [1], the “Score (safety)” value is 0. For the same compound, in data set [1], the “Score (PK)” value is on record as 0. The concentration for half-maximal inhibition (IC50) in data set [2] (setting [10]) is 3320 nM; in data set [3] (setting [11]), 30 nM; in data set [4] (setting [10]), 1860 nM; in data set [5] (setting [12]), 3 nM; in data set [6] it was 18 nM. Besides, the “rate of life-threatening adverse events” value in data set [8] (ref NCT02674750 (CUDC-907), NCT02795819 (AR-42)) is greater than 25%.

With `CC(=O)O[C@H]1C[C@H](O[C@H]2[C@@H](O)C[C@H](O[C@H]3[C@@H](O)C[C@H](OC4CC[C@@]5(C)[C@H](CC[C@@H]6[C@@H]5CC[C@]5(C)[C@@H](C7=CC(=O)OC7)CC[C@]65O)C4)O[C@@H]3C)O[C@@H]2C)O[C@H](C)[C@H]1O[C@@H]1O[C@H](CO)[C@@H](O)[C@H](O)[C@H]1O` (stereo partly shown) [Lanatoside A], in data set [1] (human), the “Score (safety)” value was 0. For the same compound, the “Score (PK)” value in data set [1] is 0. The IC50 in data set [3] (setting [11]) was 171 nM; in data set [4] (setting [10]), 860 nM; in data set [5] (setting [12]) it was 136 nM; in data set [6], 9950 nM.

On to `CN(C)Cc1c(C(=O)NCCOc2ccc(C(=O)NO)cc2)oc2ccccc12` [Abexinostat], for which the “Score (safety)” value in data set [1] amounted to 0. In data set [1], the “Score (PK)” value is recorded as 0. The IC50 is 2000 nM in data set [2] (setting [10]) and 640 nM in data set [4] (setting [10]). The “patients with significant adverse events” value in data set [8] (human, in vivo) is listed as “more than 15%”.

`C[C@@H]1O[C@@H](O[C@@H]2C=C3CC[C@@H]4[C@H](CC[C@]5(C)[C@@H](c6ccc(=O)oc6)CC[C@]45O)[C@@]3(C)CC2)[C@H](O)[C@H](O)[C@H]1O` [Proscillaridin]: in data set [1] (human), the “Score (safety)” value came out at 0. The “Score (PK)” value in data set [1] is 0. Further, the IC50 in data set [2] (Plasmodium falciparum) is 300 nM; in data set [3] (setting [11]), 9 nM; in data set [4] (setting [10]) it was 80 nM; in data set [5] (setting [12]), 14 nM; in data set [6], 9950 nM.

As to `COC(=O)C[C@](O)(CCCC(C)(C)O)C(=O)O[C@@H]1C(OC)=C[C@]23CCCN2CCc2cc4c(cc2[C@H]13)OCO4` [Homoharringtonine], the IC50 is 1730 nM in data set [2] (setting [10]); 32 nM in data set [3]; 2300 nM in data set [4] (setting [10]); 122 nM in data set [5]; 7 nM in data set [6].

(Values after PMC10082216 (Nature Communications, 2023).)
